Experimental data taken from PMC3128364 (Journal of Clinical Biochemistry and Nutrition, 2011).

Target: T1, intestinal maltase
T1 construct: gene Mgam; native, crude extract of rat intestinal acetone powder (Sigma)
Assay: glucose release from maltose, glucose oxidase kit
Format: biochemical, Rattus norvegicus
Settings: 37 mM maltose (70 µL), 0.1 M phosphate pH 6.9, 37 °C, 30 min

Row | Structure (SMILES) | IC50 [µM]
1 | C[C@H]1O[C@H](O[C@H]2[C@H](O)[C@@H](O)[C@@H](O[C@H]3[C@H](O)[C@@H](O)C(O)O[C@@H]3CO)O[C@@H]2CO)[C@H](O)[C@@H](O)[C@@H]1N[C@H]1C=C(CO)[C@@H](O)[C@H](O)[C@H]1O (some centres unmarked) [Acarbose] | 2.7 ± 0.1
2 | C[C@@H]1O[C@@H](OC[C@H]2O[C@@H](Oc3cc4c(O)cc(O)cc4[o+]c3-c3ccc(O)c(O)c3)[C@H](O)[C@@H](O)[C@@H]2O)[C@H](O)[C@H](O)[C@H]1O [C3R, cyanidin-3-rutinoside] | 2320
